Test results from article PMC8427292, “Identification and Characterization of Antimicrobial Peptides From Butterflies: An Integrated Bioinformatics and Experimental Study” (Frontiers in Microbiology, 2021).
No end group written: not given here.

Tests used:
Escherichia coli biofilm = assay: Antibiofilm assay (crystal violet); assay type: cell-based; parameters: unit not given here; settings: E. coli, 570 nm; for MBIC: biofilm formed in presence of AMPs (prevention); for MBEC: pre-formed biofilm (eradication)
Protocol: (§1) Biofilms of the aforementioned microbes were allowed to form in microtiter plates under respective culture conditions in the absence (eradication) or presence (prevention) of AMPs. After incubation, the culture supernatant was discarded, and each well was gently rinsed to remove planktonic bacteria. Biofilms were fixed with methanol and stained with 0.1% crystal violet for 20 min; then the dye bound to the cells was resolubilized with ethanol, and the absorbance of the solution was evaluated at 570 nm using a microplate reader ([Abouelhassan et al., 2017]).

[1] = tested on: Staphylococcus aureus biofilm; assay: Antibiofilm assay (crystal violet); assay type: cell-based; parameters: unit not given here; settings: S. aureus, 570 nm; for MBEC: biofilm eradication; for MBIC: biofilm prevention
Protocol: as §1

Candida albicans biofilm = assay: Antibiofilm assay (crystal violet); assay type: cell-based; settings: C. albicans, 570 nm; for MBEC: biofilm eradication; for MBIC: biofilm prevention
Protocol: as §1

E. coli = assay: In vivo antimicrobial assay, skin infection mouse model; settings: neutropenic mice, s.c. 100 μl of 1.0 × 10^8 CFU⋅ml^–1 E. coli; 100 μl AMP at MIC s.c. daily from 12 h post-infection; day 4; vs control
Protocol: (§2) In vivo antimicrobial activities of the designed AMPs were examined in neutropenic mice following subcutaneous inoculation of 100 μl of 1.0 × 10^8 CFU⋅ml^–1 E. coli, S. aureus, or C. albicans ([Lee et al., 2005]). At 12 h post-infection, 100 μl of AMPs at the respective MIC value was applied by subcutaneous injection each day. Mice were sacrificed on day 4, and the infected area was carefully excised and homogenized. The CFU count was determined after overnight incubation of the homogenate aliquots. All animal care and experiments were performed in compliance with institutional and government guidelines and were approved by the Peking Union Medical College Hospital Animal Care and Use Committee.

S. aureus = assay: as above; settings: neutropenic mice, s.c. 100 μl of 1.0 × 10^8 CFU⋅ml^–1 S. aureus; 100 μl AMP at MIC s.c. daily from 12 h post-infection; day 4; vs control
Protocol: as §2

C. albicans = assay: as above; settings: neutropenic mice, s.c. 100 μl of 1.0 × 10^8 CFU⋅ml^–1 C. albicans; 100 μl AMP at MIC s.c. daily from 12 h post-infection; day 4; vs control
Protocol: as §2

“GCVFYECIARCRQRGYLSGGYCTINGCQCL-NH2 (disulfide (positions not given here)) [DefB, designed synthetic butterfly defensin analog, C-terminally amidated]” was tested, and the MBIC (Escherichia coli biofilm) was 8, the MBEC (Escherichia coli biofilm) was 32 and the MBEC [1] was 16. It also gave an MBIC [1] of 2.

Substance “KWKIFKKIEKVGRNIRDGIIKAGPAVQVVGQAATIYKGK [CecB, designed synthetic butterfly cecropin analog]” has an MBIC (Escherichia coli biofilm) of 2, an MBEC (Escherichia coli biofilm) of 8 and an MBEC [1] of 16. For the same substance, the MBIC [1] was 2, the MBEC (Candida albicans biofilm) was 32 and the MBIC (Candida albicans biofilm) was 16. The “CFU count in infected skin” value (E. coli) was “attenuate growth” and the “CFU count in infected skin” value (S. aureus) was “attenuate growth”.

Work on “DKLIGSCVWGAVNYTSDCNAECKRRGYKGGHCGSFANVNCWCET (disulfide (positions not given here)) [DefA, designed synthetic butterfly defensin analog]” yielded an MBIC (Escherichia coli biofilm) of 8, an MBEC (Escherichia coli biofilm) of 32 and an MBEC [1] of 16. For the same substance, the MBIC [1] was 4.

“GKIPIGAIKKGAKAVGKGLKALNIASTAHDIYSFHHKKKKH [MorA, designed synthetic butterfly moricin analog]” gave an MBIC (Escherichia coli biofilm) of 4, an MBEC (Escherichia coli biofilm) of 8 and an MBEC [1] of 16. It also gave an MBIC [1] of 4, an MBEC (Candida albicans biofilm) of 16 and an MBIC (Candida albicans biofilm) of 4. The “CFU count in infected skin” value (C. albicans) was “suppress proliferation”.
